Reference: patent US10363239B2, “Method for inhibiting growth of cancer cells” (Pain Therapeutics, Inc., priority 2013, dated 2019)
Where two headings read alike, the source gives them in different places.

Columns and labels:
[1] = biological target: FLNA pentapeptide of SEQ ID NO: 1 (Bn-VAKGL) (Homo sapiens, UniProt P21333); assay: FITC-NLX-based FLNA screening assay (inhibition of FITC-naloxone binding to Bn-VAKGL on streptavidin plates); conditions: 10 nM FITC-NLX
[2] = test system: mu opiate receptor (MOR); assay: MOR agonist activity using [35S]GTPγS binding assay in striatal membranes; format: biochemical; conditions: for MOR agonist activity ([35S]GTPγS binding), FLNA-Binding Compound as Agonist 1 μM + BFNA: 1 μM compound + 1 μM β-funaltrexamine
Method in brief: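 Striatal membranes (200 μg) were preincubated 5 min at 30 °C in HEPES pH 7.5 with 100 mM NaCl, 1 mM MgCl2 and 0.5 nM [35S]GTPγS, then 5 min more with 0.1–10 μM compound. Gαo was immunoprecipitated and bound radioactivity counted by scintillation.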

[3] = read-out: Percent Binding Inhibition, FLNA-binding compound 0.01 μM
[4] = read-out: Percent Binding Inhibition, FLNA-binding compound 0.1 μM
[5] = read-out: Percent Binding Inhibition, FLNA-binding compound 1 μM
[6] = Series B, 0.1 μM compound, relative to DAMGO
[7] = Series B, 0.1 μM compound, [35S]GTPγS binding to Gαo, striatal membranes
[8] = Series B, 1 μM compound + 1 μM β-FNA
[9] = Series B, 1 μM compound + β-FNA, relative to DAMGO + BFNA
[10] = Series B, 1 μM compound, relative to DAMGO
[11] = Series B, 1 μM compound, [35S]GTPγS binding to Gαo, striatal membranes
[12] = FLNA-binding compound 0.01 μM, read-out: Percent Binding Inhibition
[13] = FLNA-binding compound 0.1 μM, read-out: Percent Binding Inhibition
[14] = FLNA-binding compound 1 μM, read-out: Percent Binding Inhibition
[15] = Series C-1, 0.1 μM compound, relative to DAMGO
[16] = Series C-1, 0.1 μM compound, [35S]GTPγS binding to Gαo, striatal membranes
[17] = Series C-1, 1 μM compound + 1 μM β-FNA
[18] = Series C-1, 1 μM compound + β-FNA, relative to DAMGO + BFNA
[19] = Series C-1, 1 μM compound, relative to DAMGO
[20] = Series C-1, 1 μM compound, [35S]GTPγS binding to Gαo, striatal membranes
[21] = Series C-2, 0.1 μM compound, relative to DAMGO
[22] = Series C-2, 0.1 μM compound, [35S]GTPγS binding to Gαo, striatal membranes
[23] = Series C-2, 1 μM compound + 1 μM β-FNA
[24] = Series C-2, 1 μM compound + β-FNA, relative to DAMGO + BFNA
[25] = Series C-2, 1 μM compound, relative to DAMGO
[26] = Series C-2, 1 μM compound, [35S]GTPγS binding to Gαo, striatal membranes
[27] = 0.1 μM compound relative to DAMGO
[28] = 1 μM compound + BFNA relative to DAMGO + BFNA
[29] = 1 μM compound relative to DAMGO

| SMILES | inhibition at 0.01 µM [1, 3] [%] | inhibition at 0.1 µM [1, 4] [%] | inhibition at 1 µM [1, 5] [%] | inhibition at 0.01 µM [1, 12] [%] | inhibition at 0.1 µM [1, 13] [%] | inhibition at 1 µM [1, 14] [%] | % DAMGO (0.1 μM) [2, 15] [%] | Concentration of FLNA-Binding Compound as Agonist 0.1 μM [2, 16] [%] | Concentration of FLNA-Binding Compound as Agonist 1 μM + BFNA [2, 17] [%] | % DAMGO + BFNA [2, 18] [%] | % DAMGO (1 μM) [2, 19] [%] | Concentration of FLNA-Binding Compound as Agonist 1 μM [2, 20] [%] | further results |
| --- | --- | --- | --- | --- | --- | --- | --- | --- | --- | --- | --- | --- | --- |
| COc1c2c(cc3c1C(CC(=O)CCc1ccc(Cl)cc1)[N+](C)(C)CC3)OCO2 (stereo not drawn) [Compound B0017] | 28.3 | 36.6 | 44.6 |  |  |  |  |  |  |  |  |  | % DAMGO (0.1 μM) [2, 6]: 58.9%; MOR agonist activity, percent [35S]GTPγS binding at the stated compound concentration [2, 7]: 99.6%; MOR agonist activity, percent [35S]GTPγS binding at the stated compound concentration [2, 8]: 49.6%; % DAMGO + BFNA [2, 9]: 75.2%; % DAMGO (1 μM) [2, 10]: 45.6%; MOR agonist activity, percent [35S]GTPγS binding at the stated compound concentration [2, 11]: 122.0% |
| N#Cc1ccc(S(=O)(=O)N2CCC3(CC2)OCCN3S(=O)(=O)c2ccc(C#N)cc2)cc1 [Compound C0008] |  |  |  | 42.2 | 52.3 | 54.4 | 41.4 | 71.2 | 2.8 | 4.4 | 72.9 | 201.6 |  |
| O=S(=O)(c1ccc(Oc2ccccc2)cc1)N1CCC2(CC1)OCCN2S(=O)(=O)c1ccc(Oc2ccccc2)cc1 [Compound C0149M] | 48.5 | 52.3 | 62 |  |  |  | 122.0 | 209.8 | 93.4 | 102.3 | 124.8 | 406.7 |  |
| COc1ccc(S(=O)(=O)N2CCC3(CC2)NCCO3)cc1 [Compound C0026] |  |  |  | 42.3 | 44.8 | 49 |  |  |  |  |  |  | % DAMGO (0.1 μM) [2, 21]: 107.7%; MOR agonist activity, percent [35S]GTPγS binding at the stated compound concentration [2, 22]: 207.2%; MOR agonist activity, percent [35S]GTPγS binding at the stated compound concentration [2, 23]: 21.2%; % DAMGO + BFNA [2, 24]: 48.3%; % DAMGO (1 μM) [2, 25]: 105.6%; MOR agonist activity, percent [35S]GTPγS binding at the stated compound concentration [2, 26]: 288.4% |
| COc1ccc(CC(=O)CC2c3c(cc4c(c3OC)OCO4)CC[N+]2(C)C)c(OC)c1 (stereo not drawn) [Compound B0029] | 33.4 | 42.9 | 50.2 |  |  |  |  |  |  |  |  |  | % DAMGO (0.1 μM) [2, 6]: 89.4%; MOR agonist activity, percent [35S]GTPγS binding at the stated compound concentration [2, 7]: 171.9%; MOR agonist activity, percent [35S]GTPγS binding at the stated compound concentration [2, 8]: 17.6%; % DAMGO + BFNA [2, 9]: 40.1%; % DAMGO (1 μM) [2, 10]: 77.0%; MOR agonist activity, percent [35S]GTPγS binding at the stated compound concentration [2, 11]: 210.3% |
| CC(C)c1ccc(S(=O)(=O)N2CCC3(CC2)OCCN3S(=O)(=O)c2ccc(C(C)C)cc2)cc1 [Compound C0007] | 40.5 | 46.3 | 48.9 |  |  |  | 46.0 | 79.1 | 10.9 | 17.0 | 70.5 | 195.0 |  |
| COc1ccc(S(=O)(=O)N2CCOC23CCN(C)CC3)cc1 [Compound C0088M] | 40.1 | 52.4 | 56.1 |  |  |  |  |  |  |  |  |  | % DAMGO (0.1 μM) [2, 21]: 160.5%; MOR agonist activity, percent [35S]GTPγS binding at the stated compound concentration [2, 22]: 276.3%; MOR agonist activity, percent [35S]GTPγS binding at the stated compound concentration [2, 23]: 177.1%; % DAMGO + BFNA [2, 24]: 513.3%; % DAMGO (1 μM) [2, 25]: 161.7%; MOR agonist activity, percent [35S]GTPγS binding at the stated compound concentration [2, 26]: 355.3% |
| COc1ccccc1C(=O)CC1c2c(cc3c(c2OC)OCO3)CC[N+]1(C)C (stereo not drawn) [Compound B0025] | 41.7 | 49.4 | 56.6 |  |  |  |  |  |  |  |  |  | % DAMGO (0.1 μM) [2, 6]: 96.3%; MOR agonist activity, percent [35S]GTPγS binding at the stated compound concentration [2, 7]: 159.6%; MOR agonist activity, percent [35S]GTPγS binding at the stated compound concentration [2, 8]: 137.7%; % DAMGO + BFNA [2, 9]: 211.8%; % DAMGO (1 μM) [2, 10]: 86.8%; MOR agonist activity, percent [35S]GTPγS binding at the stated compound concentration [2, 11]: 234.6% |
| COc1c2c(cc3c1C(CC(=O)c1ccc(O)c(C)c1)[N+](C)(C)CC3)OCO2 (stereo not drawn) [Compound B0002] | 40.2 | 46.4 | 55 |  |  |  |  |  |  |  |  |  | % DAMGO (0.1 μM) [2, 6]: 100.0%; MOR agonist activity, percent [35S]GTPγS binding at the stated compound concentration [2, 7]: 165.7%; MOR agonist activity, percent [35S]GTPγS binding at the stated compound concentration [2, 8]: 101.4%; % DAMGO + BFNA [2, 9]: 156.0%; % DAMGO (1 μM) [2, 10]: 81.1%; MOR agonist activity, percent [35S]GTPγS binding at the stated compound concentration [2, 11]: 219.0% |
| COc1ccc(C(=O)N2CCC3(CC2)OCCN3C(=O)c2ccc(OC)cc2)cc1 [Compound C0017] |  |  |  | 28.9 | 35.4 | 40.7 | 87.1 | 153.8 | 94.1 | 143.2 | 109.7 | 284.5 |  |
| O=C(c1ccc([N+](=O)[O-])cc1)N1CCC2(CC1)OCCN2C(=O)c1ccc([N+](=O)[O-])cc1 [Compound C0032] | 41.5 | 50.5 | 55.3 |  |  |  | 92.8 | 145.4 | 80.9 | 248.2 | 87.3 | 202.0 |  |
| COc1ccc(OCC(O)CN2CCc3cc4c(c(OC)c3C2)OCO4)cc1 (stereo not drawn) [Compound A0070] |  |  |  |  |  |  |  |  |  |  |  |  | Percent Binding Inhibition ([1]; FLNA-binding compound 0.01 μM): 32.9%; Percent Binding Inhibition ([1]; FLNA-binding compound 0.1 μM): 39.1%; Percent Binding Inhibition ([1]; FLNA-binding compound 1 μM): 41.7%; MOR agonist activity ([35S]GTPγS binding), FLNA-Binding Compound as Agonist 0.1 μM ([2]; 0.1 μM compound): 128.6%; % DAMGO (0.1 μM) [2, 27]: 74.7%; MOR agonist activity ([35S]GTPγS binding), FLNA-Binding Compound as Agonist 1 μM ([2]; 1 μM compound): 195.3%; MOR agonist activity ([35S]GTPγS binding), FLNA-Binding Compound as Agonist 1 μM + BFNA [2]: 80.3%; % DAMGO + BFNA [2, 28]: 232.8%; % DAMGO (1 μM) [2, 29]: 88.9% |
| COc1ccc(S(=O)(=O)N2CCCC3(C2)OCCN3S(=O)(=O)c2ccc(OC)cc2)cc1 (stereo not drawn) [Compound C0145M] |  |  |  | 45.1 | 53.7 | 58.3 | 112.2 | 193.0 | 87.0 | 95.3 | 88.7 | 289.2 |  |
| CC(=O)c1ccc(C(=O)N2CCC3(CC2)OCCN3S(=O)(=O)c2ccc(C(C)=O)cc2)cc1 [Compound C0052] | 28 | 35.6 | 40.8 |  |  |  | 74.8 | 108.4 | 42.7 | 97.0 | 69.9 | 162.8 |  |
| N#Cc1ccccc1S(=O)(=O)N1CCC2(CC1)OCCN2S(=O)(=O)c1ccccc1C#N [Compound C0004] | 37.6 | 42.3 | 44.7 |  |  |  | 72.1 | 122.0 | 65.8 | 99.7 | 85.4 | 228.4 |  |
| CC1CN(CC(O)COc2cccc(N(C)C)c2)CC(C)O1 (stereo not drawn) [Compound A0042] |  |  |  | 47.2 | 48.3 | 55.8 |  |  |  |  |  |  | MOR agonist activity ([35S]GTPγS binding), FLNA-Binding Compound as Agonist 0.1 μM ([2]; 0.1 μM compound): 147.5%; % DAMGO (0.1 μM) [2, 27]: 75.2%; MOR agonist activity ([35S]GTPγS binding), FLNA-Binding Compound as Agonist 1 μM ([2]; 1 μM compound): 233.1%; MOR agonist activity ([35S]GTPγS binding), FLNA-Binding Compound as Agonist 1 μM + BFNA [2]: 89.5%; % DAMGO + BFNA [2, 28]: 121.1%; % DAMGO (1 μM) [2, 29]: 84.5% |
| CNc1ccc(S(=O)(=O)N2CCC3(CC2)OCCN3S(=O)(=O)c2ccc(NC)cc2)cc1 [Compound C0024] |  |  |  | 37.9 | 46.4 | 50.4 | 92.8 | 178.4 | 59.3 | 135.1 | 84.1 | 229.6 |  |
